Laboratory results reported in patent US10040790B2, “Bicyclic heterocycles as FGFR inhibitors” (Incyte Corporation, priority 2013, dated 2018).

Tests used:
Assay type in all cases: biochemical
FGFR1 = FGFR1 (Homo sapiens (Human), UniProt P11362); assay: FGFR Enzymatic Assay (FRET peptide phosphorylation), FGFR1; conditions: ATP 210 μM, enzyme 0.02 nM
Method: (§1) The inhibitor potency of the exemplified compounds was measured in an enzyme assay that measures peptide phosphorylation using FRET measurements to detect product formation. Inhibitors were serially diluted in DMSO and a volume of 0.5 μL was transferred to the wells of a 384-well plate. For FGFR3, a 10 μL volume of FGFR3 enzyme (Millipore) diluted in assay buffer (50 mM HEPES, 10 mM MgCl2, 1 mM EGTA, 0.01% Tween-20, 5 mM DTT, pH 7.5) was added to the plate and pre-incubated for 5-10 minutes. Appropriate controls (enzyme blank and enzyme with no inhibitor) were included on the plate. The assay was initiated by the addition of a 10 μL solution containing biotinylated EQEDEPEGDYFEWLE peptide substrate (SEQ ID NO: 1) and ATP (final concentrations of 500 nM and 140 μM respectively) in assay buffer to the wells. The plate was incubated at 25° C. for 1 hr. The reactions were ended with the addition of 10 μL/well of quench solution (50 mM Tris, 150 mM NaCl, 0.5 mg/mL BSA, pH 7.8; 30 mM EDTA with Perkin Elmer Lance Reagents at 3.75 nM Eu-antibody PY20 and 180 nM APC-Streptavidin). The plate was allowed to equilibrate for ˜1 hr before scanning the wells on a PheraStar plate reader (BMG Labtech).
(§2) FGFR1 and FGFR2 were measured under equivalent conditions with the following changes in enzyme and ATP concentrations: FGFR1, 0.02 nM and 210 μM, respectively and FGFR2, 0.01 nM and 100 μM, respectively. The enzymes were purchased from Millipore or Invitrogen.
(§3) GraphPad prism3 was used to analyze the data. The IC50 values were derived by fitting the data to the equation for a sigmoidal dose-response with a variable slope. Y=Bottom+(Top−Bottom)/(1+10^((Log IC50−X)*HillSlope)) where X is the logarithm of concentration and Y is the response.

FGFR3 = FGFR3 (Homo sapiens (Human), UniProt P22607); assay: FGFR Enzymatic Assay (FRET peptide phosphorylation), FGFR3; conditions: ATP 140 μM
Method: as §1, §3

FGFR2 = FGFR2 (Homo sapiens (Human), UniProt P21802); assay: FGFR Enzymatic Assay (FRET peptide phosphorylation), FGFR2; conditions: ATP 100 μM, enzyme 0.01 nM
Method: as §1, §2, §3

Measured: IC50

FGFR1, sequence (P11362 22-822): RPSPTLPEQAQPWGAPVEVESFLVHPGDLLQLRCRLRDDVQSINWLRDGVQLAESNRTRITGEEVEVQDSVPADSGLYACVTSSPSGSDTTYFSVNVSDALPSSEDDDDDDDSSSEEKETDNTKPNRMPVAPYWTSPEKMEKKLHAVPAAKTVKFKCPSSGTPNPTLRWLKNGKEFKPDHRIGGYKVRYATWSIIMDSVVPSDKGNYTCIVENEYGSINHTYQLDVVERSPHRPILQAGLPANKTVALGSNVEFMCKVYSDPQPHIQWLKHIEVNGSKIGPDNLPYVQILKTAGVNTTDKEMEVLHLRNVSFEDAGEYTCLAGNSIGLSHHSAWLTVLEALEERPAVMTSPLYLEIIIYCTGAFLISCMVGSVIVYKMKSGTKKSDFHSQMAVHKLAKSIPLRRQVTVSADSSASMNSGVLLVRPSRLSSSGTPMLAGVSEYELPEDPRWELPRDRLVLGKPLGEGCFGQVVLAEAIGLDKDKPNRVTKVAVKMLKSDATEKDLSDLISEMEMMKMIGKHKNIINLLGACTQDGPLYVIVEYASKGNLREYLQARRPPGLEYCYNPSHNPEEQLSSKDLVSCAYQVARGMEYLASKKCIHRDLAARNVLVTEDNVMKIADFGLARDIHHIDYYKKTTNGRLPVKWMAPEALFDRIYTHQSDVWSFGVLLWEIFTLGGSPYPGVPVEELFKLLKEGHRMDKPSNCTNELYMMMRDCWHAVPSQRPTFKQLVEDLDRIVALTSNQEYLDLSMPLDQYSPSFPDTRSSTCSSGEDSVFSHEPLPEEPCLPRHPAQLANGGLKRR
FGFR2, sequence (P21802 22-821): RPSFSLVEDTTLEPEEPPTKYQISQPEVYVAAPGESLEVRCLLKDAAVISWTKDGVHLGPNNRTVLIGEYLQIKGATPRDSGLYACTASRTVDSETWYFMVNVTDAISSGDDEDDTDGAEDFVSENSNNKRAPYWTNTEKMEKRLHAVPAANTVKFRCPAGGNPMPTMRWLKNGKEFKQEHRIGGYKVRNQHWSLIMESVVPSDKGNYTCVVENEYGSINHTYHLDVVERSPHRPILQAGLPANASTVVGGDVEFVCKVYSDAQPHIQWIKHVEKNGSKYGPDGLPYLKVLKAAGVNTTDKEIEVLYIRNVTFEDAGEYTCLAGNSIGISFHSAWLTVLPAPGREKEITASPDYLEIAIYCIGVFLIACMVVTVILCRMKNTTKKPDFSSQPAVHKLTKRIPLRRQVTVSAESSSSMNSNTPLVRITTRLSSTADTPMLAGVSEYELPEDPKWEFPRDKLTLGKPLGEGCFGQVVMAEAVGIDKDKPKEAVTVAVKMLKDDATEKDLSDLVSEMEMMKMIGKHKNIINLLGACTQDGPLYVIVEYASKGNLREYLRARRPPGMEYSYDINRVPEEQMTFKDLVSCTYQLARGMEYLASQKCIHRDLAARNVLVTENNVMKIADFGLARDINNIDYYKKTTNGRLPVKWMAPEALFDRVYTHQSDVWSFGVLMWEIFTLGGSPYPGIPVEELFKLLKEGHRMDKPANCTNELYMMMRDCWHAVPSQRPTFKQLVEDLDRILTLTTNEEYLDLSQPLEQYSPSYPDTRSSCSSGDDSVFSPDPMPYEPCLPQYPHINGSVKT
FGFR3, sequence (P22607 23-806): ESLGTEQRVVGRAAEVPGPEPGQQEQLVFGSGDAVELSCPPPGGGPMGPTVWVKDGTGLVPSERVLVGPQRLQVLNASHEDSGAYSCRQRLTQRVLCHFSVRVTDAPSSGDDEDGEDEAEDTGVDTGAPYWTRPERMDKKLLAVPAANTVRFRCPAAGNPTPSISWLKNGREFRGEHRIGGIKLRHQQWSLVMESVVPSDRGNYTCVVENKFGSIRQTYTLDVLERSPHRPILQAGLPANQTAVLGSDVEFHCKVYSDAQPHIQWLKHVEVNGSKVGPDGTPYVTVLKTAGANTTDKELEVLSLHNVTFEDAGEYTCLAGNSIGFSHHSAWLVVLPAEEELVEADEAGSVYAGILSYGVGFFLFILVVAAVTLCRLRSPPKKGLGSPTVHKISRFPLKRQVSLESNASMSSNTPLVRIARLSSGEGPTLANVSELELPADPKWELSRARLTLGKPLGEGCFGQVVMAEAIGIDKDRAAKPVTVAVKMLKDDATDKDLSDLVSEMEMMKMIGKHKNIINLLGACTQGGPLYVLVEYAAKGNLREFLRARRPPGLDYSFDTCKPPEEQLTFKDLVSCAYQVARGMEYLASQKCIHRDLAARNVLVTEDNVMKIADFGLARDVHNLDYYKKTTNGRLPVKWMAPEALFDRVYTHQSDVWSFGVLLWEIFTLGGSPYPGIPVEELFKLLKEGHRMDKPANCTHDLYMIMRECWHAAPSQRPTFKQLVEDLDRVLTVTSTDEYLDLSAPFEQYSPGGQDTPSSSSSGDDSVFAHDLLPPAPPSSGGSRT

COc1cc(OC)c(F)c(N2Cc3cnc(N)c(-c4cn[nH]c4)c3N(C)C2=O)c1F [Example 12, 7-amino-3-(2,6-difluoro-3,5-dimethoxyphenyl)-1-methyl-8-(1H-pyrazol-4-yl)-3,4-dihydro-pyrido[4,3-d]pyrimidin-2(1H)-one]
< 0.1 µM: all assays above

COc1cc(OC)c(F)c(N2Cc3cnc(N)c(-c4ccnn4C)c3N(C)C2=O)c1F [Example 13, 7-amino-3-(2,6-difluoro-3,5-dimethoxyphenyl)-1-methyl-8-(1-methyl-1H-pyrazol-5-yl)-3,4-dihydropyrido[4,3-d]pyrimidin-2(1H)-one]
< 0.1 µM: all assays above

COc1cc(OC)c(F)c(N2Cc3cnc(N)c(-c4ccccc4)c3N(C)C2=O)c1F [Example 14, 7-amino-3-(2,6-difluoro-3,5-dimethoxyphenyl)-1-methyl-8-phenyl-3,4-dihydropyrido[4,3-d]pyrimidin-2(1H)-one]
< 0.1 µM: all assays above

COc1cc(OC)c(F)c(N2Cc3cnc(N)c(-c4ccc(F)cc4)c3N(C)C2=O)c1F [Example 15, 7-amino-3-(2,6-difluoro-3,5-dimethoxyphenyl)-8-(4-fluorophenyl)-1-methyl-3,4-dihydro-pyrido[4,3-d]pyrimidin-2(1H)-one]
< 0.1 µM: all assays above

COc1cc(OC)c(F)c(N2Cc3cnc(N)c(-c4cccnc4)c3N(C)C2=O)c1F [Example 16, 7-amino-3-(2,6-difluoro-3,5-dimethoxyphenyl)-1-methyl-8-pyridin-3-yl-3,4-dihydropyrido[4,3-d]pyrimidin-2(1H)-one]
< 0.1 µM: all assays above

COc1cc(OC)c(F)c(N2Cc3cnc(N)c(-c4ccncc4)c3N(C)C2=O)c1F [Example 17, 7-amino-3-(2,6-difluoro-3,5-dimethoxyphenyl)-1-methyl-8-pyridin-4-yl-3,4-dihydropyrido[4,3-d]pyrimidin-2(1H)-one]
< 0.1 µM: all assays above

COc1cc(OC)c(F)c(N2Cc3cnc(N)c(/C=C/c4ccccc4)c3N(C)C2=O)c1F [Example 18, 7-amino-3-(2,6-difluoro-3,5-dimethoxyphenyl)-1-methyl-8-[(E)-2-phenylvinyl]-3,4-dihydropyrido[4,3-d]pyrimidin-2(1H)-one]
< 0.1 µM: all assays above

COc1cc(OC)c(F)c(N2Cc3cnc(N)c(CCc4ccccc4)c3N(C)C2=O)c1F [Example 19, 7-amino-3-(2,6-difluoro-3,5-dimethoxyphenyl)-1-methyl-8-phenylethyl-3,4-dihydropyrido-[4,3-d]pyrimidin-2(1H)-one]
< 0.1 µM: all assays above

COc1cc(OC)c(F)c(N2Cc3cnc(N)c(Cc4ccccc4)c3N(C)C2=O)c1F [Example 20, 7-amino-8-benzyl-3-(2,6-difluoro-3,5-dimethoxyphenyl)-1-methyl-3,4-dihydropyrido[4,3-d]pyrimidin-2(1H)-one]
< 0.1 µM: all assays above

COc1cc(OC)c(F)c(N2Cc3cnc(N)c(C4=CCOCC4)c3N(C)C2=O)c1F [Example 21, 7-amino-3-(2,6-difluoro-3,5-dimethoxyphenyl)-8-(3,6-dihydro-2H-pyran-4-yl)-1-methyl-3,4-dihydropyrido[4,3-d]pyrimidin-2(1H)-one]
< 0.1 µM: all assays above

COc1cc(OC)c(F)c(N2Cc3cnc(N)cc3C(C)(C)C2=O)c1F [Example 22, 6-amino-2-(2,6-difluoro-3,5-dimethoxyphenyl)-4,4-dimethyl-1,2-dihydro-2,7-naphthyridin-3(4H)-one]
< 0.1 µM: all assays above

COc1cc(OC)c(F)c(N2Cc3cnc(NCCN4CCOCC4)cc3C3(CC3)C2=O)c1F [Example 23, 2′-(2,6-difluoro-3,5-dimethoxyphenyl)-6′-[(2-morpholin-4-ylethyl)amino]-1′,2′-dihydro-3′H-spiro[cyclopropane-1,4′-[2,7]naphthyridin]-3′-one]
< 0.1 µM: all assays above

COc1cc(OC)c(F)c(N2Cc3cnc(N)cc3C3(CC3)C2=O)c1F [Example 24, 6′-amino-2′-(2,6-difluoro-3,5-dimethoxyphenyl)-1′H-spiro[cyclopropane-1,4′-[2,7]naphthyridin]-3′(2′H)-one]
< 0.1 µM: all assays above

CNc1cc2c(cn1)CN(c1c(F)c(OC)cc(OC)c1F)C(=O)C21CC1 [Example 25, 2′-(2,6-difluoro-3,5-dimethoxyphenyl)-6′-(methylamino)-1′,2′-dihydro-3′H-spiro[cyclopropane-1,4′-[2,7]naphthyridin]-3′-one]
< 0.1 µM: all assays above

COc1cc(OC)c(F)c(N2Cc3cnc(NC4CCOCC4)cc3C3(CC3)C2=O)c1F [Example 26, 2′-(2,6-difluoro-3,5-dimethoxyphenyl)-6′-(tetrahydro-2H-pyran-4-ylamino)-1′,2′-dihydro-3′H-spiro[cyclopropane-1,4′-[2,7]naphthyridin]-3′-one]
< 0.1 µM: all assays above

COc1cc(OC)c(F)c(N2Cc3cnc(NC[C@H](C)O)cc3C3(CC3)C2=O)c1F [Example 27, (S)-2′-(2,6-difluoro-3,5-dimethoxyphenyl)-6′-(2-hydroxypropylamino)-1′H-spiro[cyclopropane-1,4′-[2,7]naphthyridin]-3′(2′H)-one]
< 0.1 µM: all assays above

COc1cc(OC)c(F)c(N2Cc3cnc(NCc4ccccn4)cc3C3(CC3)C2=O)c1F [Example 28, 2′-(2,6-difluoro-3,5-dimethoxyphenyl)-6′-(pyridin-2-ylmethylamino)-1′H-spiro[cyclopropane-1,4′-[2,7]naphthyridin]-3′(2′H)-one]
< 0.1 µM: all assays above

COc1cc(OC)c(F)c(N2Cc3cnc(N[C@H]4CCOC4)cc3C3(CC3)C2=O)c1F [Example 29, (S)-2′-(2,6-difluoro-3,5-dimethoxyphenyl)-6′-(tetrahydrofuran-3-ylamino)-1′H-spiro[cyclopropane-1,4′-[2,7]naphthyridin]-3′(2′H)-one]
< 0.1 µM: all assays above

COc1cc(OC)c(F)c(N2Cc3cnc(NCCN4CCN(C)CC4)cc3C3(CC3)C2=O)c1F [Example 30, 2′-(2,6-difluoro-3,5-dimethoxyphenyl)-6′-(2-(4-methylpiperazin-1-yl)ethylamino)-1′H-spiro[cyclopropane-1,4′-[2,7]naphthyridin]-3′(2′H)-one]
< 0.1 µM: all assays above

COC(=O)Nc1cc2c(cn1)CN(c1c(F)c(OC)cc(OC)c1F)C(=O)C21CC1 [Example 31, methyl 2′-(2,6-difluoro-3,5-dimethoxyphenyl)-3′-oxo-2′,3′-dihydro-1′H-spiro[cyclopropane-1,4′-[2,7]naphthyridine]-6′-ylcarbamate]
< 0.1 µM: all assays above

COc1cc(OC)c(F)c(N2Cc3cnc(Nc4cccnc4)cc3C3(CC3)C2=O)c1F [Example 32, 2′-(2,6-difluoro-3,5-dimethoxyphenyl)-6′-(pyridin-3-ylamino)-1′H-spiro[cyclopropane-1,4′-[2,7]naphthyridin]-3′(2′H)-one]
< 0.1 µM: all assays above

COc1cc(OC)c(F)c(N2Cc3cnc(Nc4cccc(F)c4)cc3C3(CC3)C2=O)c1F [Example 33, 2′-(2,6-difluoro-3,5-dimethoxyphenyl)-6′-(3-fluorophenylamino)-1′H-spiro[cyclopropane-1,4′-[2,7]naphthyridin]-3′(2′H)-one]
< 0.1 µM: all assays above

COc1cc(OC)c(F)c(N2Cc3cnc(NC4CCCC4)cc3C3(CC3)C2=O)c1F [Example 34, 6′-(cyclopentylamino)-2′-(2,6-difluoro-3,5-dimethoxyphenyl)-1′H-spiro[cyclopropane-1,4′-[2,7]naphthyridin]-3′(2′H)-one]
< 0.1 µM: all assays above

COc1cc(OC)c(F)c(N2Cc3cnc(NC[C@@H]4CCCO4)cc3C3(CC3)C2=O)c1F [Example 35, (S)-2′-(2,6-difluoro-3,5-dimethoxyphenyl)-6′-((tetrahydrofuran-2-yl)methylamino)-1′H-spiro[cyclopropane-1,4′-[2,7]naphthyridin]-3′(2′H)-one]
< 0.1 µM: all assays above
